{"source": "patent US7785849B2", "about": "“Cyclic nucleotide-specific phosphodiesterases from Leishmania and uses thereof” (priority 2003, dated 2010)", "key": {"LmPDE-B1": {"biological_target": "LmPDE-B1 (Leishmania major, UniProt Q6S997)", "sequence (Q6S997 entry or part of it)": "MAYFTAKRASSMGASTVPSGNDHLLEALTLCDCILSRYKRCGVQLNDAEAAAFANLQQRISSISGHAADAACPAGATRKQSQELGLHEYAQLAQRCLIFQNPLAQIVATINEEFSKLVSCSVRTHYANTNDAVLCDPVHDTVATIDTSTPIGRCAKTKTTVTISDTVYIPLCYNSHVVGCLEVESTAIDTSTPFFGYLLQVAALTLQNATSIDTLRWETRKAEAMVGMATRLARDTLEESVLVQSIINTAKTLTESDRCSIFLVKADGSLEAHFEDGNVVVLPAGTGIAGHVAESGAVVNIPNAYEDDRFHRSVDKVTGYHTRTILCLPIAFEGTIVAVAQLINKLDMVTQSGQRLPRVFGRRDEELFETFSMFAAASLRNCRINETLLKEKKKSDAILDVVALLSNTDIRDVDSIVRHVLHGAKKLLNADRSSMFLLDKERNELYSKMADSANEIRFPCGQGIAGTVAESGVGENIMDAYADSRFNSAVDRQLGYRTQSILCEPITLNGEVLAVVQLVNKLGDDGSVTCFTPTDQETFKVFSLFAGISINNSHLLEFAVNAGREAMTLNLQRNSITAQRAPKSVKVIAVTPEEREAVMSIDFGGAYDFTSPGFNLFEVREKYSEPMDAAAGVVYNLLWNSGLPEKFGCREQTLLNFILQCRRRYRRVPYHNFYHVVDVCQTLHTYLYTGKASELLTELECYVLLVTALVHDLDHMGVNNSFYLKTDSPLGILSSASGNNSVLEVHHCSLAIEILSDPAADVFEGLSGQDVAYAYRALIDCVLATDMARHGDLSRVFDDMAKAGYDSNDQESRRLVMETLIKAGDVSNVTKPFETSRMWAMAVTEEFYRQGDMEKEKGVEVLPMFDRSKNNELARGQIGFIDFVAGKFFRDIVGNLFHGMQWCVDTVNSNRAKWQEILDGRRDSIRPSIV", "test": "PDE activity assay in yeast lysates, recombinant LmPDE-B1 (3H-cAMP hydrolysis)", "format": "biochemical", "settings": "for IC50: read-out: IC50, inhibition of LmPDE-B1 activity", "experimental": "(§1) PP5 yeast cells expressing LmPDE-A, LmPDE-B1, and LmPDE-B2, were lysed as described previously (Zoraghi et al. (2001) J. Biol. Chem. 276, 11559-11566). The cells were grown to mid-log to end-log phase in SC-leu medium, collected, resuspended in the original volume of prewarmed YPD medium, and incubated for an additional 3.5 hours at 30° C. to maximize protein expression. The cells were then harvested, washed twice in H2O, pelleted by centrifugation, and stored overnight at −70° C. The cell pellet was thawed on ice and resuspended in ice-cold extraction buffer (50 mM Hepes pH 7.5, 100 mM NaCl, 1× Complete® protease inhibitor cocktail without EDTA (Roche)). Cells were lysed by grinding with glass beads (0.45-0.50 mm) in 2 ml Sarstedt tubes using a FastPrep FP120 cell disrupter (3×45 seconds at setting 4). The lysed cells were centrifuged and glycerol was added to the resulting supernatant to a final concentration of 15% (v/v). Aliquots were snap-frozen in liquid nitrogen and were stored at −70° C.\nPDE activity was determined in 50 mM HEPES, pH 7.5, 0.5 mM EDTA, 10 mM MgCl2, and 50 mg/ml BSA in a final assay volume of 100 μl. Each assay contained 50,000 cpm of ^3H-labeled cAMP, with unlabeled cAMP added to adjust the desired total substrate concentration. […] The standard reaction time was set to 15 minutes, and the amount of enzyme was always chosen so that no more than 15% of the substrate was hydrolyzed. Inhibitor studies were done at a cAMP concentration of 1 μM. Inhibitors were dissolved in DMSO, but the final DMSO concentration in the assays never exceeded 1%. Control reactions with DMSO alone were always included. Reactions were stopped by the addition of 25 μl of 0.5 N HCl. For the subsequent dephosphorylation of the AMP, the stopped reactions were neutralized with 20 μl of 1 M Tris base, followed by the addition of 10 μl of alkaline phosphatase (Roche Diagnostics; 1 unit/10 μl). The dephosphorylation reactions were incubated for 15 minutes at 37° C. and were then applied to 1 ml columns of QAE-Sephadex A25 in 30 mM ammonium formiate, pH 6.0. The ^3H-adenosine formed as a reaction product was eluted with 1.6 ml of 30 mM ammonium formiate, pH 6.0 and was collected into 3.5 ml of water-soluble scintillation fluid (Packard Ultima Flo). Assays were performed in triplicate, and data were analyzed using the Graph Pad Prism software package."}, "LmPDE-B2": {"test_system": "LmPDE-B2", "test": "PDE activity assay in yeast lysates, recombinant LmPDE-B2 (3H-cAMP hydrolysis)", "format": "biochemical, Leishmania major", "settings": "100 μM inhibitor, 1 μM cAMP", "experimental": "as §1\nPDE activity was determined in 50 mM HEPES, pH 7.5, 0.5 mM EDTA, 10 mM MgCl2, and 50 mg/ml BSA in a final assay volume of 100 μl. Each assay contained 50,000 cpm of ^3H-labeled cAMP, with unlabeled cAMP added to adjust the desired total substrate concentration. […] Assays were performed in triplicate, and data were analyzed using the Graph Pad Prism software package."}}, "note": "Like-named read-outs stand apart in the source and are kept apart here.", "data": [{"smiles": "Nc1nc2c(ncn2[C@@H]2O[C@@H]3COP(=O)(O)O[C@H]3[C@H]2O)c(=O)[nH]1", "note": "[cGMP, cyclic guanosine mono-phosphate]", "values": [{"measurement": "effect on rate of hydrolysis of cAMP by LmPDE-B1", "setting": "LmPDE-B1; 100-fold excess of cGMP", "value": "did not affect"}]}, {"smiles": "COc1cc2c(cc1OC)-c1c/c(=N\\c3c(C)cc(C)cc3C)n(C)c(=O)n1CC2", "note": "[trequinsin]", "values": [{"measurement": "IC50", "setting": "LmPDE-B1; 1 μM cAMP, yeast lysate", "value": 96.6, "unit": "µM"}, {"measurement": "sensitivity of LmPDE-B1 activity to PDE inhibitor", "setting": "LmPDE-B1; 100 μM inhibitor, 1 μM cAMP", "value": "partly sensitive"}, {"measurement": "sensitivity of LmPDE-B2 activity to PDE inhibitor", "setting": "LmPDE-B2", "value": "partly sensitive"}]}, {"smiles": "OCCN(CCO)c1nc(N2CCCCC2)c2nc(N(CCO)CCO)nc(N3CCCCC3)c2n1", "note": "[dipyridamole]", "values": [{"measurement": "sensitivity of LmPDE-B1 activity to PDE inhibitor", "setting": "LmPDE-B1", "value": "partly sensitive"}, {"measurement": "IC50", "setting": "LmPDE-B1", "value": 22.6, "unit": "µM"}, {"measurement": "sensitivity of LmPDE-B2 activity to PDE inhibitor", "setting": "LmPDE-B2", "value": "partly sensitive"}]}]}
